In US20020187534A1, “Treating cancer by increasing intracellular malonyl CoA levels” (priority 1999, published 2002):

What was measured:
[1] = system: SKBR3 and MCF7 human breast cancer cells; experiment: Clonogenic assay (Example 2); assay type: cell-based; settings: for cytotoxicity in clonogenic assays: inhibitors 6 hours, dose range for ACC or FAS inhibition
Procedure: Cells and inhibitors were as described for Example 1. For clonogenic assays, 4×10^5 cells were plated in […] flasks with inhibitors added for 6 hours in concentrations listed. Equal numbers of treated cells and controls were plated in 60 mm dishes. Clones were stained and counted after 7 to 10 days.

[2] = system: SKBR3 and MCF7 human breast cancer cell lines; experiment: Fatty acid synthesis activity, [U-14C]-acetate pulse labeling of lipids; assay type: cell-based; settings: for [U14C-acetate] incorporation into lipids: SKBR3 and MCF7, labeled for 2 hours after exposure to inhibitor; for dose range of maximal inhibition of FA synthesis: all cell lines tested
Procedure: The human breast cancer cell lines, SKBR3 and MCF7 were maintained in RPMI with 10% fetal bovine serum. Cells were screened periodically for Mycoplasma contamination (Gen-probe). All inhibitors were added as stock 5 mg/ml solutions in DMSO. For fatty acid synthesis activity determinations, 5×10^4 cells/well in 24 well plates were pulse labeled with [U-^14C]-acetate after exposure to drug, and lipids were extracted and quantified as described previously (Pizer, et al., 1988). For MCF7 cells, pathway activity was determined after 2 hours of inhibitor exposure.

[3] = Toxicity to host in nude mice (tolerability, histology of liver and other host tissues, weight); assay type: in vivo, mouse
Procedure: (§1) Treatment began when measurable tumors developed about 10 days after inoculation. Eleven mice (divided among two separate experiments of 5 and 6 mice each) were treated intraperitoneally with wcekly doses of C75 at 30 mg/kg in 0.1 ml RPMI. […] Eleven control mice (divided in the same way as the treatment groups) received RPMI alone. Tumor volume was measured with calipers in three dimensions. Experiment was terminated when controls reached the surrogate endpoint.
(§2) In an additional parallel experiment to histologically examine treated and control tumors, 6 C75 treated and 6 vehicle control mice were sacrificed 6 hours after treatment. Tumor and normal tissues were fixed in neutral-buffered formalin, processed for routine histology, and immunohistochemistry for FAS was performed. Immunohistochemistry for FAS was performed on the MCF-7 xenografts using a mouse monoclonal anti-FAS antibody (Alo, et al., 1996) at 1:2000 on the Dako Immunostainer using the LSAB2 detection kit.

[4] = system: fatty acid synthesis in MCF-7 xenografts and liver; experiment: Ex vivo [U-14C]-acetate labeling of tumor and liver of xenografted mice; assay type: in vivo, mouse; settings: 30 mg/kg intraperitoneal, within 3 hours
Procedure: In a parallel experiment to determine fatty acid synthesis activity in treated and control tumors, a group of MCF-7 xenografted mice were treated with C75 or vehicle at above doses and sacrificed after 3 hours. Tumor and liver tissue were ex vivo labeled with [U^14-C] acetate, lipids were extracted and counted as described (Pizer, et al, 1996).

MCF-7 cells [5] = experiment: Malonyl-CoA levels by reversed phase HPLC; assay type: cell-based, human; settings: for malonyl-CoA levels increased over controls: 1 hour exposure at 10 μg/ml
Procedure: Malonyl-CoA levels were measured in MCF-7 cells using the HPLC method of Corkey, et al. (1988, “Analysis of acyl-coenzyme A esters in biological samples,” Methods in Enzymology, 166:55-70). Briefly, 2.5×10^5 cells/well in 24 well plates were subjected to 1.2 ml of 10% TCA at 4° C. after various drug treatments. The pellet mass was recorded and the supernatant was washed 6 times with 1.2 ml of ether and reduced to dryness using vacuum centrifugation at 25° C. Coenzyme-A esters were separated and quantitated using reversed phase HPLC on a 5μ Supelco C18 column with a Waters HPLC system running Millenium^32 software monitoring 254 nm as the maximum absorbance for coenzyme-A. The following gradients and buffers were utilized: Buffer A: 0.1 M potassium phosphate, pH 5.0, Buffer B: 0.1 M potassium phosphate, pH 5.0, with 40% acetonitrile. Following a 20 min. isocratic run with 92% A, 8% B at 0.4 ml/min, flow was increased to 0.8 ml/min over one minute whereupon a linear gradient to 10% B was run until 24 min. then held at 10% B until 50 min. where a linear gradient was run to 100% B at 55 min., completing at 60 min. The following coenzyme-A esters (Sigma) were run as standards: malonyl-CoA, acetyl-CoA, glutathione-CoA, succinyl-CoA, HMG-CoA, and free CoA. Samples and standards were dissolved in 50 μl of buffer A. Coenzyme-A esters eluted sequentially as follows: malonyl-CoA, glutathione-CoA, free CoA, succinyl-CoA, HMG-CoA, and acetyl-CoA. Quantitation of coenzyme-A esters was performed by the Millenium^32 software.

MCF-7 xenografts [6] = experiment: Histology of treated xenograft tumors; assay type: in vivo, mouse; settings: 6 hours after 30 mg/kg
Procedure: as §2

MCF-7 xenografts [7] = experiment: Growth of subcutaneous MCF-7 xenografts in athymic nude mice; assay type: in vivo, mouse; settings: 30 mg/kg intraperitoneal weekly, after 32 days
Procedure: Subcutaneous flank xenografts of the human breast cancer cell line, MCF-7 in nu/nu female mice (Harlan) were used to study the anti-tumor effects of C75 in vivo. All animal experiments complied with institutional animal care guidelines. All mice received a 90-day slow-release subcutaneous estrogen pellet (Innovative Research) in the anterior flank 7 days before tumor inoculation. […] MCF-7 cells were xenografted from culture in DMEM supplemented with 10% FBS and insulin 10 μg/ml.
as §1

MCF-7 cells [8] = experiment: Cell growth inhibition assay, crystal violet; assay type: cell-based, human; settings: for growth inhibition: 48 hours after treatment, Example 12
[9] = Single dose LD10 determination; assay type: in vivo; settings: BALB/c mice
MCF-7 cells [10] = experiment: Fatty acid oxidation, 14CO2 released from [14C]palmitate; assay type: cell-based, human
Procedure: Fatty acid oxidation was measured by trapping and counting the ^14CO2 released from the oxidation of [^14C]palmitate in base. 1×10^6 MCF-7 cells were plated in T-25 flasks in triplicate and incubated overnight at 37° C. […] After 2 hours, medium with drugs was removed and cells were preincubated for 30 minutes with 1.5 ml of the following buffer: 114 mM NaCl, 4.7 mM KCI, 1.2 mM KH2PO4, 1.2 mM MgSO4, glucose 11 mM. After preincubation, 200 μl of assay buffer was added containing: 114 mM NaCl, 4.7 mM KCl, 1.2 mM KH2PO4, 1.2 mM MgSO4, glucose 11 mM, 2.5 mM palmitate (containing with 100 μCi of [1-^14C]palmitate) bound to albumin, 0.4 mM L-camitine, and cells were incubated at 37° C. for 2 hours. Following the incubation, 400 μl of benzothonium hydrochloride was added to the center well to collect released ^14CO2. […] The flasks with wells were then incubated for 2 hours at 37° C. after which the benzothonium hydrochloride was removed and counted for ^14C.

[11] = in vivo; cited from earlier work
CPT-1 = experiment: Carnitine palmitoyltransferase-1 (CPT-1) assay in permeabilized MCF-7 cells; assay type: cell-based, human
Procedure: MCF-7 cells were plated in RPMI 1640 with 10% fetal bovine serum at 1×10^6 cells in six-well plates in triplicate. Following overnight incubation at 37° C., medium was removed and replaced with 700 μl of assay medium consisting of: 50 mM imidazole, 70 mM KCl, 80 mM sucrose, 1 mM EGTA, 2 mM MgCl2, 1 mM DTT, 1 mM KCN, 1 mM ATP, 0.1% fatty acid free bovine serum albumin, 70 μM palmitoyl-CoA, 0.25 μCi (methyl-^14C]L-camitine, 40 μg digitonin with or without 20 μM malonyl-CoA or other indicated inhibitors.
After incubation for 3 or 6 minutes at 37° C., the reaction was stopped by the addition of 500 μl of ice-cold 4 M perchloric acid. Cells were then harvested and centrifuged at 10,000× g for 5 min. The pellet was washed with 500 μl ice cold perchloric acid and centrifuged again. The resulting pellet was resuspended in 800 μl dH2O and extracted with 150 μl of butanol. The butanol phase was counted by liquid scintillation and represents the acylcarnitine derivative.

MCF-7 cells [12] = experiment: Clonogenic assay (Example 11); assay type: cell-based, human; settings: 6 h exposure; TOFA at 5 μg/ml
Procedure: After overnight incubation at 37° C., 1×10^6 MCF-7 cells were exposed to drugs as indicated for 6 h, washed, detached by trypsin digestion, counted and plated at 1000 or 500 cells/60-mm plate in triplicate. Colonies were stained with crystal violet and counted 4-6 days after plating. Controls consisted of cells incubated with DMSO without drugs. Error bars represent standard error of the mean.

SKBR3 and MCF7 cells = experiment: Apoptosis by multiparameter flow cytometry, merocyanine 540 staining; assay type: cell-based, human
Procedure: Apoptosis was measured by multiparameter flow cytometry using a FACStar^Plus flow cytometer equipped with argon and krypton lasers (Becton Dickinson). Apoptosis was quantified using merocyanine 540 staining (Sigma), which detects altered plasma membrane phospholipid packing that occurs early in apoptosis, added directly to cells from culture (Pizer, et al., 1998; Mower, et al., 1994, “Decreased membrane pospholipid packing and decreased cell size precede DNA cleavage in mature mouse B cell apoptosis, J. Immunol., 152:4832-4842). In some experiments, chromatin conformational changes of apoptosis were simultaneously measured as decreased staining with LDS-751 (Exciton) (Frey, et al., 1995, “Nucleic acid dyes for detection of apoptosis in live cells,” Cytometry, 21:265-274). […] Cells were stained with LDS-751 at a final concentration of 100 nM from a 1 mM stock in DMSO. The merocyanine 540-positive cells were marked by an increase in red fluorescence, collected at 575+/−20 nm, 0.5 to 2 logs over merocyanine 540-negative cells. […] Data were collected and analyzed using CellQuest software (Becton Dickinson). In these experiments, all LDS-751 dim cells were merocyanine 540 bright, however a population of merocyanine 540 bright cells were detected that were not yet LDS-751 dim. All merocyanine 540 bright cells were classified as apoptotic.

M-CPT-1 = settings: cited from earlier work

C=C1C(=O)OC(CCCCCCCC)C1C(=O)O (stereo not shown) [C75]
cytotoxicity in clonogenic assays [1]: significantly cytotoxic
[U14C-acetate] incorporation into lipids [2]: inhibited
dose range of maximal inhibition of FA synthesis [2]: ~10 µg/mL
tolerability ([3]; 30 mg/kg, outbred nude mice): well tolerated
histological analysis of liver and other host tissues ([3]; following C75 treatment): no evidence of any short or long term toxicity
toxicity noted ([3]; weekly intraperitoneal treatment): transient reversible weight loss was the only toxicity noted
reduction of fatty acid synthesis in MCF-7 xenografts [4]: 70%
reduction of fatty acid synthesis in ex vivo labeled liver [4]: 76%
malonyl-CoA levels increased over controls (MCF-7 cells [5]): 370%
tumor histology (MCF-7 xenografts [6]): numerous apoptotic bodies throughout the tumor tissue
difference in tumor growth compared to vehicle controls (MCF-7 xenografts [7]): greater than eight-fold
growth inhibition (MCF-7 cells [8]): significant growth inhibition over control
LD10 [9]: 40 mg/kg

O=C([O-])C1(CCCCCCOc2ccc(Cl)cc2)CO1.[Na+] (stereo not shown) [Etomoxir]
fatty acid oxidation decreased over control (MCF-7 cells [10]; 50 μg/ml): > 50%
toxicity in humans treated for diabetes [11]: without significant toxicity or weight loss
reduction in CPT-1 activity (CPT-1; 10 μg/ml): 75%
cytotoxicity in clonogenic assay (MCF-7 cells [12]): not significantly cytotoxic
reduction in growth (MCF-7 cells [8]; 200 μg/ml, the only effective dose): significant reduction in growth
growth inhibition (MCF-7 cells [8]): significant growth inhibition over control
growth inhibition or cytotoxicity (MCF-7 cells [8]; doses known to inhibit CPT-1 and fatty acid oxidation, 48 or 72 h, Example 10): no significant growth inhibition or cytotoxicity
growth inhibition of MCF-7 cells (MCF-7 cells [8]; over 72 h, Example 7): dose dependent growth inhibition of MCF-7 cells over 72 h greater than that of C75 at 5 μg/ml

CCCCCCCCCCCCCCOc1ccc(C(=O)O)o1 [TOFA, 5-(tetradecyloxy)-2-furoic acid]
changes in fatty acid oxidation (MCF-7 cells [10]; data not shown): nor does TOFA cause significant changes in fatty acid oxidation
reduction in clonogenicity [1]: no reduction
TOFA rescue of C75 cytotoxicity in clonogenic assay ([1]; MCF7 cells): modest rescue
TOFA rescue of cerulenin cytotoxicity in clonogenic assay ([1]; MCF7 cells): modest rescue
cytotoxicity in clonogenic assays [1]: non-toxic or stimulatory
increase in apoptosis (SKBR3 and MCF7 cells): < 5%
TOFA rescue from cerulenin induced apoptosis (SKBR3 and MCF7 cells; SKBR3 and MCF7 cells): rescued cells from cerulenin induced apoptosis
[U14C-acetate] incorporation into lipids [2]: inhibited
dose range of maximal inhibition of FA synthesis [2]: 1 to 5 µg/mL
direct inhibition of CPT-1 (CPT-1): does not cause CPT-1 inhibition
reduction of malonyl-CoA levels (MCF-7 cells [5]; 20 μg/ml): 60%
cytotoxicity in clonogenic assay (MCF-7 cells [12]): not significantly cytotoxic

C/C=C/C/C=C/CCC(=O)[C@H]1O[C@H]1C(N)=O [cerulenin]
reduction in fatty acid oxidation compared to control (MCF-7 cells [10]; 10 μg/ml, 2 hours): ~50%
reduction in clonogenicity [1]: 70%
cytotoxicity in clonogenic assays [1]: significantly cytotoxic
apoptosis (SKBR3 and MCF7 cells): > 85%
reduction in fatty acid synthesis ([2]; MCF-7, 10 μg/ml, within 2 hours): > 50%
[U14C-acetate] incorporation into lipids [2]: inhibited
dose range of maximal inhibition of FA synthesis [2]: ~10 µg/mL
increase in malonyl-CoA (MCF-7 cells [5]; 10 μg/ml): nine-fold
malonyl-CoA levels increased over controls (MCF-7 cells [5]): 930%

CC(C)(COP(=O)(O)OP(=O)(O)OC[C@H]1O[C@@H](n2cnc3c(N)ncnc32)[C@H](O)[C@@H]1OP(=O)(O)O)[C@@H](O)C(=O)NCCC(=O)NCCSC(=O)CC(=O)O [malonyl-CoA]
sensitivity of M-CPT-1 versus L-CPT-1 to malonyl-CoA inhibition (M-CPT-1): 100 fold
